The assay has as its target KRAS G12C (Homo sapiens (Human), UniProt P01116, C118A/G12C). Kind of assay: 2 h coupled exchange assay. Format: biochemical. As to conditions: Avg 2 h Coupled exchange IC50, 2 h compound pre-incubation, SOS-mediated nucleotide exchange. The procedure:
The term “2 h coupled exchange assay” or “20 h coupled exchange assay” as used herein refers to the assay described in the Section entitled “BIOLOGICAL EVALUATION.”
Chain of KRAS G12C (P01116 other isoform, or with tags, fused parts or gaps G12C/C118A): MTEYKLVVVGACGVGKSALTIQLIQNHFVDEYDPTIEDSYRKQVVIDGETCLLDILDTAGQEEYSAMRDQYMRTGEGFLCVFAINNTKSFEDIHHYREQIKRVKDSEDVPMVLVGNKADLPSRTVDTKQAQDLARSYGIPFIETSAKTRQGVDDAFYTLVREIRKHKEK
Consider `C=CC(=O)N1CC2(CCN(c3nc4c(c(-c5cc(S(N)(=O)=O)ccc5C)c3C#N)CCC(C)(C)C4)C2)C1` [Example 2-106, 3-(3-cyano-7,7-dimethyl-2-(2-(2-propenoyl)-2,6-diazaspiro[3.4]octan-6-yl)-5,6,7,8-tetrahydro-4-quinolinyl)-4-methylbenzenesulfonamide], for which the midpoint of inhibition, the IC50, lay at 0.288 µM. Then `C=CC(=O)N1CC2(CCN(c3nc4ccccc4c(-c4c(CC)ccc5[nH]ncc45)c3C#N)C2)C1` [Example 4, 4-(5-ethyl-1H-indazol-4-yl)-2-(2-(2-propenoyl)-2,6-diazaspiro[3.4]octan-6-yl)-3-quinolinecarbonitrile], with 1.05 µM; and `C=CC(=O)N1CC2(CCN(c3nc4ccccc4c(-c4c(C)ccc5[nH]ncc45)c3C3CC3)C2)C1` [Example 6, 1-(6-(3-cyclopropyl-4-(5-methyl-1H-indazol-4-yl)quinolin-2-yl)-2,6-diazaspiro[3.4]octan-2-yl)prop-2-en-1-one], with 3.5 µM; and `C=CC(=O)N1CC2(CCN(c3nc4ccccc4c(-c4c(C)ccc5[nH]ncc45)c3C)C2)C1` [Example 8, 1-(6-(3-Methyl-4-(5-methyl-1H-indazol-4-yl)quinolin-2-yl)-2,6-diazaspiro[3.4]octan-2-yl)prop-2-en-1-one], with 1.27 µM. With `C=CC(=O)N1CC2(CCN(c3nc4c(c(-c5ccc(F)c6cc[nH]c56)c3C#N)COC(C)(C)C4)C2)C1` [Example 12-3, 4-(4-fluoro-1H-indol-7-yl)-7,7-dimethyl-2-(2-(2-propenoyl)-2,6-diazaspiro[3.4]octan-6-yl)-7,8-dihydro-5H-pyrano[4,3-b]pyridine-3-carbonitrile] the figure was 0.623 µM; with `C=CC(=O)N1CC2(CCN(c3nc4c(c(-c5cccc6cc(N)ccc56)c3C#N)COC(C)(C)C4)C2)C1` [Example 12-4, 4-(6-amino-1-naphthalenyl)-7,7-dimethyl-2-(2-(2-propenoyl)-2,6-diazaspiro[3.4]octan-6-yl)-7,8-dihydro-5H-pyrano[4,3-b]pyridine-3-carbonitrile], 0.818 µM; with `C=CC(=O)N1CC2(CCN(c3nc4c(c(-c5ccc(Cl)c6ccn(C)c56)c3C#N)COC(C)(C)C4)C2)C1` [Example 12-5, 4-(4-chloro-1-methyl-1H-indol-7-yl)-7,7-dimethyl-2-(2-(2-propenoyl)-2,6-diazaspiro[3.4]octan-6-yl)-7,8-dihydro-5H-pyrano[4,3-b]pyridine-3-carbonitrile], 0.463 µM. On to `C=CC(=O)N1CC2(CCN(c3nc4c(c(-c5ccc(Cl)c6cc[nH]c56)c3C#N)COC(C)(C)C4)C2)C1` [Example 12-6, 4-(4-chloro-1H-indol-7-yl)-7,7-dimethyl-2-(2-(2-propenoyl)-2,6-diazaspiro[3.4]octan-6-yl)-7,8-dihydro-5H-pyrano[4,3-b]pyridine-3-carbonitrile], for which the IC50 – broadly, the midpoint of a concentration-inhibition curve – stood at 0.213 µM. Then `C=CC(=O)N1CC2(CCN(c3nc4c(c(-c5cc(Cl)cc6cc[nH]c56)c3C#N)COC(C)(C)C4)C2)C1` [Example 12-7, 4-(5-chloro-1H-indol-7-yl)-7,7-dimethyl-2-(2-(2-propenoyl)-2,6-diazaspiro[3.4]octan-6-yl)-7,8-dihydro-5H-pyrano[4,3-b]pyridine-3-carbonitrile], with 0.435 µM. Then `C=CC(=O)N1CC2(CCN(c3nc4c(c(-c5cc(Cl)cc6ccn(C)c56)c3C#N)COC(C)(C)C4)C2)C1` [Example 12-8, 4-(5-chloro-1-methyl-1H-indol-7-yl)-7,7-dimethyl-2-(2-(2-propenoyl)-2,6-diazaspiro[3.4]octan-6-yl)-7,8-dihydro-5H-pyrano[4,3-b]pyridine-3-carbonitrile], with 0.399 µM. As for `C=CC(=O)N1CC2(CCN(c3nc4c(c(-c5c(Cl)ccc6cc[nH]c56)c3C#N)COC(C)(C)C4)C2)C1` [Example 12-13, 4-(6-chloro-1H-indol-7-yl)-7,7-dimethyl-2-(2-(2-propenoyl)-2,6-diazaspiro[3.4]octan-6-yl)-7,8-dihydro-5H-pyrano[4,3-b]pyridine-3-carbonitrile], half-maximal inhibition (IC50) required 0.252 µM.
